Results as given in US8785457B2 (Cellzome Limited, priority 2009, dated 2014).
Read-outs that look alike come from different tables or passages of the source.

Tests used:
mTOR = biological target: T1, mTOR (Homo sapiens, UniProt P42345); assay: mTOR kinobeads assay (competitive binding in Jurkat cell lysate, immunodetection)
T1 construct: endogenous in cells; host or cells: Jurkat, clone E6-1 (ATCC TIB-152) cell lysate
Protocol: The compounds of the present invention as described were tested in the mTOR kinobeads assay as described below. […] After the incubation time the beads with captured proteins were separated from the lysate. Bound proteins were then eluted and the presence of mTOR, PI3K delta (PI3 Kd) and DNA-dependent protein kinase (DNA-PK) was detected and quantified using a specific antibody in a dot blot procedure and the Odyssey infrared detection system.
(§1) The kinobeads assay was performed as a competitive binding assay in which test compounds were added directly into a cell lysate. Test compounds (at various concentrations) and the affinity matrix (beads with immobilized phenylmorpholin-chromen ligand) were added to cell lysate aliquots and allowed to bind to the proteins contained in the lysate sample. After the incubation time the beads with captured proteins were separated from the lysate. Bound proteins were then eluted and the presence of kinases was detected and quantified using a multiplexed immunodetection format. Dose response curves for individual kinases were generated and IC50 values calculated.
(§2) 5×DP buffer: 250 mM Tris-HCl pH 7.4, 25% Glycerol, 7.5 mM MgCl2, 750 mM NaCl, 5 mM Na3VO4, filter the 5×-lysis buffer through 0.22 μm filter and store in aliquots at −80° C. The 5×DP buffer is diluted to 1×DP buffer containing 1 mM DTT and 25 mM NaF.
(§3) Stock solutions of test compounds were prepared in DMSO. In a 96 well plate 30 μl solution of diluted test compounds at 5 mM in DMSO were prepared. Starting with this solution a 1:3 dilution series (9 steps) was prepared. For control experiments (no test compound) a buffer containing 2% DMSO was used.
Jurkat cells were homogenized in a Potter S homogenizer in lysis buffer: 50 mM Tris-HCl, 0.8% NP40, 5% glycerol, 150 mM NaCl, 1.5 mM MgCl2, 25 mM NaF, 1 mM sodium vanadate, 1 mM DTT, pH 7.5. […] The material was dounced 10 times using a mechanized POTTER S, transferred to 50 ml falcon tubes, incubated for 30 minutes on ice and spun down for 10 min at 20,000 g at 4° C. (10,000 rpm in Sorvall SLA600, precooled). […] (33.500 rpm in Ti50.2, precooled). The supernatant was transferred again to a fresh 50 ml falcon tube, the protein concentration was determined by a Bradford assay (BioRad) and samples containing 50 mg of protein per aliquot were prepared. The samples were immediately used for experiments or frozen in liquid nitrogen and stored frozen at −80° C.
Jurkat cell lysate (approximately 50 mg protein per plate) was thawed in a water bath at room temperature and then kept on ice. […] The diluted cell lysate was stored on ice.
Plates were sealed and incubated for two hours in a cold room on a Thermoxer with shaking (750 rpm). Afterwards the plate was washed twice with 230 μl washing buffer (1×DP 0.4% NP40). […] The eluate was frozen quickly at −80° C. and stored at −20° C.
The kinases in the eluates were detected and quantified by spotting on Nitrocellulose membranes and using a first antibody directed against the kinase of interest and a fluorescently labeled secondary antibody (anti-mouse or anti-rabbit IRDye™ antibodies from Rockland).
Afterwards the membrane was washed three times for 10 minutes with PBS buffer containing 0.1% Tween 20 at room temperature. […] Afterwards the membrane was washed three times for 10 minutes each with 1×PBS buffer containing 0.1% Tween 20 at room temperature. Then the membrane was rinsed once with PBS buffer to remove residual Tween 20. The membrane was kept in PBS buffer at 4° C. and then scanned with the Odyssey instrument. Fluorescence signals were recorded and analysed according to the instructions of the manufacturer.

PI3K delta (PI3 Kd) = biological target: T2, PI3K delta (PI3 Kd) (Homo sapiens, UniProt O00329); assay: kinobeads assay, PI3K delta; format: binding
T2 construct: endogenous in cells; host or cells: Jurkat, clone E6-1 (ATCC TIB-152) cell lysate
T2 sequence (O00329 whole entry): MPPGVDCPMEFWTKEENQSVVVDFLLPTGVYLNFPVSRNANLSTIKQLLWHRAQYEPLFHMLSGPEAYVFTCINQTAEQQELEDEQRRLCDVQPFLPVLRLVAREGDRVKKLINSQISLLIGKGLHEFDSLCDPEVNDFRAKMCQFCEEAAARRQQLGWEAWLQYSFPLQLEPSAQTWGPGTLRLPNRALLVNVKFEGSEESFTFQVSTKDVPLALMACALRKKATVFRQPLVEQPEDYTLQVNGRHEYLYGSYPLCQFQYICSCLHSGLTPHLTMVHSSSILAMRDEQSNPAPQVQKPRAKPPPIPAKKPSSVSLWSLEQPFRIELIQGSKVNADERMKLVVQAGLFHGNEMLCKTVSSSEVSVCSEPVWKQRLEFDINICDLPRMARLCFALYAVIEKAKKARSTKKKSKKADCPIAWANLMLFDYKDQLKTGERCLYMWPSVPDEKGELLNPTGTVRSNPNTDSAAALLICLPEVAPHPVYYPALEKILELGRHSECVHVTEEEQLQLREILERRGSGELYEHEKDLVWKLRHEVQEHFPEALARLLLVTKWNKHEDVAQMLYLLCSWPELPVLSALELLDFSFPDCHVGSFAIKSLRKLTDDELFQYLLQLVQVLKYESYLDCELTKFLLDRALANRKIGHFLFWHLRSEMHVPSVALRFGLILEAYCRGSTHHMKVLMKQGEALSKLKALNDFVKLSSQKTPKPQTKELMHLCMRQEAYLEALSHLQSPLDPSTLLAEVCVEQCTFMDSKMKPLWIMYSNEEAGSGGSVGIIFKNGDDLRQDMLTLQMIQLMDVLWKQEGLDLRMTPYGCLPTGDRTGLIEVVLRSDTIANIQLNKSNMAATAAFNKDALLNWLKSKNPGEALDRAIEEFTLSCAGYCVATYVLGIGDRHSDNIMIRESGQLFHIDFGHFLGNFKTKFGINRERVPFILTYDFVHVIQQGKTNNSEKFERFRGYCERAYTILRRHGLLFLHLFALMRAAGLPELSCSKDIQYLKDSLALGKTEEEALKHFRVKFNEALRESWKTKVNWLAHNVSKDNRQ
T2 sequence (P27986 whole entry partner): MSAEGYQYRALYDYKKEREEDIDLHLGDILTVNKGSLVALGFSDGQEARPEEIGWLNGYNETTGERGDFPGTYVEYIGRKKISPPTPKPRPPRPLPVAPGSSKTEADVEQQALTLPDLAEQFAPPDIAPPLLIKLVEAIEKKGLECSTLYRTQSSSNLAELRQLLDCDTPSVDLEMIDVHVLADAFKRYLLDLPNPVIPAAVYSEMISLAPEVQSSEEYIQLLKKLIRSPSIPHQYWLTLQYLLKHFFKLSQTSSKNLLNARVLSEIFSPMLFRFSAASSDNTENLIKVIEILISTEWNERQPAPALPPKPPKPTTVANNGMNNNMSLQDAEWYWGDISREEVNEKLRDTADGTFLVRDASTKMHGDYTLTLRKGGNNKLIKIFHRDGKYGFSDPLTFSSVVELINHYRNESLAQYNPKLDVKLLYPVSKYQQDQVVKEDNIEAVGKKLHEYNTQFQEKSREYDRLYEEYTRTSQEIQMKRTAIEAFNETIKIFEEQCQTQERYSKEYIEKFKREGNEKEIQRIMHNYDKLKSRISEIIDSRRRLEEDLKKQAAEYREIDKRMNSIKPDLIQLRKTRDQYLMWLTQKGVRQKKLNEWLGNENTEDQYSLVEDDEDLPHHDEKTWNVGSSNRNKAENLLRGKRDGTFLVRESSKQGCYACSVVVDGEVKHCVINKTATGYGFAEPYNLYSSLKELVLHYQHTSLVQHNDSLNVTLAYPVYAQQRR
Protocol: (§4) The compounds of the present invention as described were tested in the mTOR kinobeads assay as described below. Briefly, test compounds (at various concentrations) and the affinity matrix with the immobilized phenylmorpholin-chromen ligand (8-(4-aminomethyl-phenyl)-2-morpholin-4-yl-chromen-4-one) were added to cell lysate aliquots and allowed to bind to the proteins in the lysate sample. After the incubation time the beads with captured proteins were separated from the lysate. Bound proteins were then eluted and the presence of mTOR, PI3K delta (PI3 Kd) and DNA-dependent protein kinase (DNA-PK) was detected and quantified using a specific antibody in a dot blot procedure and the Odyssey infrared detection system. Kinobeads assays for PI3K (WO-A 2008/015013) and for kinase selectivity profiling (WO 2006/134056) have been previously described.
as §1
(§5) The affinity matrix (beads with immobilized phenylmorpholin-chromen ligand) was washed two times with 15 ml of 1×DP buffer containing 0.2% NP40 (IGEPAL® CA-630, Sigma, #13021) and then resupended in 5.5 ml of 1×DP buffer containing 0.2% NP40 (10% beads slurry).
as §2
as §3, with “used. Compound CZC00018052 served as a positive control (PI-103; Calbiochem catalogue number 528100).” for “used.”
(§6) Jurkat cells (ATCC catalogue number TIB-152 Jurkat, clone E6-1) were grown in 1 liter Spinner flasks (Integra Biosciences, #182101) in suspension in RPMI 1640 medium (Invitrogen, #21875-034) supplemented with 10% Fetal Bovine Serum (Invitrogen) at a density between 0.15×10^6 and 1.2×10^6 cells/ml. Cells were harvested by centrifugation, washed once with 1×PBS buffer (Invitrogen, #14190-094) and cell pellets were frozen in liquid nitrogen and subsequently stored at −80° C.
(§7) Jurkat cells were homogenized in a Potter S homogenizer in lysis buffer: 50 mM Tris-HCl, 0.8% NP40, 5% glycerol, 150 mM NaCl, 1.5 mM MgCl2, 25 mM NaF, 1 mM sodium vanadate, 1 mM DTT, pH 7.5. One complete EDTA-free tablet (protease inhibitor cocktail, Roche Diagnostics, 1873580) per 25 ml buffer was added. The material was dounced 10 times using a mechanized POTTER S, transferred to 50 ml falcon tubes, incubated for 30 minutes on ice and spun down for 10 min at 20,000 g at 4° C. (10,000 rpm in Sorvall SLA600, precooled). The supernatant was transferred to an ultracentrifuge (UZ)-polycarbonate tube (Beckmann, 355654) and spun for 1 hour at 100.000 g at 4° C. (33.500 rpm in Ti50.2, precooled). The supernatant was transferred again to a fresh 50 ml falcon tube, the protein concentration was determined by a Bradford assay (BioRad) and samples containing 50 mg of protein per aliquot were prepared. The samples were immediately used for experiments or frozen in liquid nitrogen and stored frozen at −80° C. […]

[1] = biological target: T3, DNA-dependent protein kinase (DNA-PK) (Homo sapiens, UniProt P78527); assay: kinobeads assay, DNA-PK; format: binding
T3 construct: endogenous in cells; host or cells: Jurkat, clone E6-1 (ATCC TIB-152) cell lysate
Protocol: as §4, §1, §5, §2
as §3, with “used. Compound CZC00018052 served as a positive control (PI-103; Calbiochem catalogue number 528100).” for “used.”
as §6, §7

PI3Kalpha (PI3Ka) = biological target: T4, PI3Kalpha (PI3Ka) (Homo sapiens, UniProt P42336); assay: kinobeads assay, PI3Kalpha; format: binding; settings: for PI3Ka: Further Kinobeads Data; for Inhibition values (IC50) PI3Ka / IC50: kinobeads assay, Table 6; for IC50: read-out: Inhibition values (IC50) PI3Ka
T4 construct: endogenous in cells; host or cells: cell lysate
T4 sequence (P42336 whole entry): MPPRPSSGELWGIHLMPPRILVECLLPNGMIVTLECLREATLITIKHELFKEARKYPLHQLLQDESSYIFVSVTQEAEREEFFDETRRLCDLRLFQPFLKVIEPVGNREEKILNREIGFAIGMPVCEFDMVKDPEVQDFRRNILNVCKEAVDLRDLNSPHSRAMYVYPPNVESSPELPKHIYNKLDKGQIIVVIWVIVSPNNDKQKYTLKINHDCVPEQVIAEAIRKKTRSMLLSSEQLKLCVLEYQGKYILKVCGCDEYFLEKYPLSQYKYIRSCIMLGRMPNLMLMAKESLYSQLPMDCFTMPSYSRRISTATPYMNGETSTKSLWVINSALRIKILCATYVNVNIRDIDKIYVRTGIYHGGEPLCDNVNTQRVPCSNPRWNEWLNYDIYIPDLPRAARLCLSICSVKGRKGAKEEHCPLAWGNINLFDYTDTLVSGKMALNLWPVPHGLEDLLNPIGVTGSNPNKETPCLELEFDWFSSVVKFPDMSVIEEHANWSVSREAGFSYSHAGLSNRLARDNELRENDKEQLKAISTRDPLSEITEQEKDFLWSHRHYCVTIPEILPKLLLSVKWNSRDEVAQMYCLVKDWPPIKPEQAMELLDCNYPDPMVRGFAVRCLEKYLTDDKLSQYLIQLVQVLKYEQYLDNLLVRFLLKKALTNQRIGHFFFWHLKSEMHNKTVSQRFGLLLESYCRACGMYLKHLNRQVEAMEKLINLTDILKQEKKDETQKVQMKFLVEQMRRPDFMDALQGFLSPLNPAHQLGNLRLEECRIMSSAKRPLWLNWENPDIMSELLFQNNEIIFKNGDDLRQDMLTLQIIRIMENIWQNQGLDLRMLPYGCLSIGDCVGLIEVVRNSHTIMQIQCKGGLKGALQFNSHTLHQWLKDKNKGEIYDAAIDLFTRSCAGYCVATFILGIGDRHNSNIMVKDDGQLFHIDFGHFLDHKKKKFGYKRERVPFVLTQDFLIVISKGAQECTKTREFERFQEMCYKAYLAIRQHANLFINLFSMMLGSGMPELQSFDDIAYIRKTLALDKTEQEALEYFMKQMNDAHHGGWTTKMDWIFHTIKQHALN
T4 sequence (P27986 whole entry partner): as the sequence (P27986 whole entry partner) above
Protocol: as §1
(§8) The effect of the compounds on the kinases PI3Kalpha (PI3Ka), PI3 Kbeta (PI3 Kb) and PI3 Kgamma (PI3 Kg) were tested in the kinobeads assay as described (WO-A 2009/098021).

PI3 Kbeta (PI3 Kb) = biological target: T5, PI3 Kbeta (PI3 Kb) (Homo sapiens, UniProt P42338); assay: kinobeads assay, PI3Kbeta; format: binding
T5 construct: endogenous in cells; host or cells: cell lysate
T5 sequence (P42338 whole entry): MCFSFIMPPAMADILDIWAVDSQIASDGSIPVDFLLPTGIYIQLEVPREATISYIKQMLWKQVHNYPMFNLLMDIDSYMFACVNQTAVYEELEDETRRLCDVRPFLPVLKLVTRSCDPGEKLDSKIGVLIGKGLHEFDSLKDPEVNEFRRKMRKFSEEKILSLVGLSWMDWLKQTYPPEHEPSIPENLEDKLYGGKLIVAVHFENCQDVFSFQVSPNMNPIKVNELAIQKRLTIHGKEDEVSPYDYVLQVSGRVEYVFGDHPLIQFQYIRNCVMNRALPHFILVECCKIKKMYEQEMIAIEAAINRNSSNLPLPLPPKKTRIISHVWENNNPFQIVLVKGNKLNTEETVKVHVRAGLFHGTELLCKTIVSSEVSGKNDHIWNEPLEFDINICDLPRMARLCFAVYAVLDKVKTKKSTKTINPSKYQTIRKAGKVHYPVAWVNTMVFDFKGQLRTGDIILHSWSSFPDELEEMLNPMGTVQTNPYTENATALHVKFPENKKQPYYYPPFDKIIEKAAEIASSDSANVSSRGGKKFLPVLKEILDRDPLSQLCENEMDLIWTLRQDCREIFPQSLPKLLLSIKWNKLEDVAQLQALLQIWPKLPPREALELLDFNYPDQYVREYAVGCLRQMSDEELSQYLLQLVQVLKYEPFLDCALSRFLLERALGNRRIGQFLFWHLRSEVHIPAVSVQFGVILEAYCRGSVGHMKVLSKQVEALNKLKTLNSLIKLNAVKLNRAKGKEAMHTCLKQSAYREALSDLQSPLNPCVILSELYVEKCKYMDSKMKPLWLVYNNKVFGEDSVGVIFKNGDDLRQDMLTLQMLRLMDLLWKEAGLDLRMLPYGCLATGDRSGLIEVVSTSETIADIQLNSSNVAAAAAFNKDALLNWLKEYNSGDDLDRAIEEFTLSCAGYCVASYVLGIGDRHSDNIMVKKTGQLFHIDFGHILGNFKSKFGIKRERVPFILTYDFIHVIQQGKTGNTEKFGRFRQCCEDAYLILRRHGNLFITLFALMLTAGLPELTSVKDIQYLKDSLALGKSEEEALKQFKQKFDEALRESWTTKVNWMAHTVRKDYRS
T5 sequence (P27986 whole entry partner): as the sequence (P27986 whole entry partner) above
Protocol: as §1, §8

PI3 Kgamma (PI3 Kg) = biological target: T6, PI3 Kgamma (PI3 Kg) (Homo sapiens, UniProt P48736); assay: kinobeads assay, PI3Kgamma; format: binding
T6 construct: endogenous in cells; host or cells: cell lysate
T6 sequence (P48736 whole entry): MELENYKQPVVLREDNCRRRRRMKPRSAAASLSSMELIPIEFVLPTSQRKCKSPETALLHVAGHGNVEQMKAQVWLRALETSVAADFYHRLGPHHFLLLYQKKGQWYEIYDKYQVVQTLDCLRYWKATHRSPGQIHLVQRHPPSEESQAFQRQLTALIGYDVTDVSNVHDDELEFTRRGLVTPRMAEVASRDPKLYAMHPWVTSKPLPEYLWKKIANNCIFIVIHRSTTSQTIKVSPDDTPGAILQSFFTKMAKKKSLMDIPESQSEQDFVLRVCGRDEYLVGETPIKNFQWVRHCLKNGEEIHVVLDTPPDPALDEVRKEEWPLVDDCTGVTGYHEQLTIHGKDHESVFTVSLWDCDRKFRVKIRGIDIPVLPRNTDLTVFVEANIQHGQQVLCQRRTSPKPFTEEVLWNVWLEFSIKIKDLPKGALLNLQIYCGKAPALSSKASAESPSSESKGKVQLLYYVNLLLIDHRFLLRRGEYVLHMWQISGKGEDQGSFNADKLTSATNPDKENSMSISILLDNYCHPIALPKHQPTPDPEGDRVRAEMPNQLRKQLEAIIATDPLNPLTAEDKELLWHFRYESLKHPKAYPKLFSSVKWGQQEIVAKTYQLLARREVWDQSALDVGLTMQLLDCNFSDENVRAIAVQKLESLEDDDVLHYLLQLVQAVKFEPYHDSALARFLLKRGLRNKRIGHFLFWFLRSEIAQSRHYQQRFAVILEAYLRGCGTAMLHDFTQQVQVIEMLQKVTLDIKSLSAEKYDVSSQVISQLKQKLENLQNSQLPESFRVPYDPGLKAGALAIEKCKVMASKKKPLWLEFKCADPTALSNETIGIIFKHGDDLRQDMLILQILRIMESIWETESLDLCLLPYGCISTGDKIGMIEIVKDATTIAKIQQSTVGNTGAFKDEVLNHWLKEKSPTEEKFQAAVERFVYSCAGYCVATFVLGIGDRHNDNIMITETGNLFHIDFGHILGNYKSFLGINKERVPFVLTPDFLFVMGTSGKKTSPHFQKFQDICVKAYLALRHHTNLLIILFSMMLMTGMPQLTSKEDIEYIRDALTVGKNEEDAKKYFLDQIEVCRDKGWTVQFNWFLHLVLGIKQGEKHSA
Protocol: as §1, §8

[2] = Further Kinobeads Data, read-out: mTor
[3] = Further Kinobeads Data, read-out: PI3Kd
[4] = Further Kinobeads Data, read-out: DNAPK
[5] = Further Kinobeads Data, read-out: PI3Kb
[6] = Further Kinobeads Data, read-out: PI3Kg
[7] = kinobeads assay, Table 6, read-out: Inhibition values (IC50) mTOR
[8] = kinobeads assay, Table 6, read-out: Inhibition values (IC50) PI3Kd
[9] = kinobeads assay, Table 6, read-out: Inhibition values (IC50) DNAPK
[10] = kinobeads assay, Table 6, read-out: Inhibition values (IC50) PI3Kb
[11] = kinobeads assay, Table 6, read-out: Inhibition values (IC50) PI3Kg

IC50 (mTOR; [2]) [µM] | IC50 (PI3K delta (PI3 Kd); [3]) [µM] | IC50 [1, 4] [µM] | PI3Ka (PI3Kalpha (PI3Ka)) | IC50 (PI3 Kbeta (PI3 Kb); [5]) [µM] | IC50 (PI3 Kgamma (PI3 Kg); [6]) [µM] | IC50 (mTOR; [7]) [µM] | IC50 (PI3K delta (PI3 Kd); [8]) [µM] | IC50 [1, 9] [µM] | Inhibition values (IC50) PI3Ka (PI3Kalpha (PI3Ka)) | IC50 (PI3 Kbeta (PI3 Kb); [10]) [µM] | IC50 (PI3 Kgamma (PI3 Kg); [11]) [µM] | IC50 (PI3Kalpha (PI3Ka)) [µM] | SMILES
0.1 to 1 | > 10 | > 10 | D (D >10 μM) | > 10 | > 10 |  |  |  |  |  |  |  | C[C@H]1COCCN1c1nc(-c2ccc(NC(=O)NC3CC3)cc2F)nc2c1CN(C(=O)OC(C)(C)C)C2 [Example 144, (S)-tert-Butyl 2-(4-(3-cyclopropylureido)-2-fluorophenyl)-4-(3-methylmorpholino)-5H-pyrrolo[3,4-d]pyrimidine-6(7H)-carboxylate]
 |  |  |  |  |  | 0.1 to 1 | > 10 | > 10 | D (D >10 μM) | > 10 | > 10 |  | CCOC(=O)N1Cc2nc(-c3ccc(NC(=O)NCC(=O)O)cc3)nc(N3CCOC[C@@H]3C)c2C1 [Example 115, (S)-2-(3-(4-(6-(ethoxycarbonyl)-4-(3-methylmorpholino)-6,7-dihydro-5H-pyrrolo[3,4-d]pyrimidin-2-yl)phenyl)ureido)acetic acid]
 |  |  |  |  |  | < 0.1 | 0.1 to 1 | > 10 | B (B >0.1 μM < 1 μM) | 1 to 10 | 1 to 10 |  | CCOC(=O)N1Cc2nc(-c3ccc(NC(=O)NCCN)cc3)nc(N3CCOC[C@@H]3C)c2C1 [Example 112, (S)-ethyl 2-(4-(3-(2-aminoethyl)ureido)phenyl)-4-(3-methylmorpholino)-5H-pyrrolo[3,4-d]pyrimidine-6(7H)-carboxylate]
 |  |  |  |  |  | < 0.1 | > 10 | > 10 |  | > 10 | > 10 | 1 to 10 | C[C@H]1COCCN1c1nc(-c2ccc(NC(=O)NC3CC3)cc2)nc2c1CN(CCCC(=O)O)C2 [Example 134, (S)-4-(2-(4-(3-cyclopropylureido)phenyl)-4-(3-methylmorpholino)-5H-pyrrolo[3,4-d]pyrimidin-6(7H)-yl)butanoic acid]
< 0.1 | > 10 | > 10 | D (D >10 μM) | > 10 | > 10 |  |  |  |  |  |  |  | CC(=O)N1Cc2nc(-c3ccc(NC(=O)NC4CC4)cc3F)nc(N3CCOCC3)c2C1 [Example 166, 1-(4-(6-Acetyl-4-morpholino-6,7-dihydro-5H-pyrrolo[3,4-d]pyrimidin-2-yl)-3-fluorophenyl)-3-cyclopropylurea]
< 0.1 | 1 to 10 | > 10 | D (D >10 μM) | > 10 | > 10 |  |  |  |  |  |  |  | CC(C)N1Cc2nc(-c3ccc(NC(=O)NCCO)cc3F)nc(N3CCOCC3)c2C1 [Example 184, 1-(3-fluoro-4-(6-isopropyl-4-morpholino-6,7-dihyro-5H-pyrrolo[3,4-d]pyrimidin-2-yl)phenyl)-3-(2-hydroxyethyl)urea]
 |  |  |  |  |  | < 0.1 | 1 to 10 | > 10 |  | 1 to 10 | > 10 | 1 to 10 | CC(=O)NCCCC(=O)N1Cc2nc(-c3ccc(NC(=O)NC4CC4)cc3)nc(N3CCOC[C@@H]3C)c2C1 [Example 133, (S)—N-(4-(2-(4-(3-cyclopropylureido)phenyl)-4-(3-methylmorpholino)-5H-pyrrolo[3,4-d]pyrimidin-6(7H)-yl)-4-oxobutyl)acetamide]
1 to 10 | > 10 | > 10 | D (D >10 μM) | > 10 | > 10 |  |  |  |  |  |  |  | CCNC(=O)Nc1c(F)cc(-c2nc3c(c(N4CCOC[C@@H]4C)n2)CN(C)C3)cc1F [Example 139, (S)-1-(2,6-difluoro-4-(6-methyl-4-(3-methylmorpholino)-6,7-dihydro-5H-pyrrolo[3,4-d]pyrimidin-2-yl)phenyl)-3-ethylurea]
 |  |  |  |  |  | 0.1 to 1 | > 10 | > 10 | D (D >10 μM) | > 10 | > 10 |  | CCNC(=O)Nc1ccc(-c2nc3c(c(N4CCOC[C@@H]4C)n2)CN(C2CCN(C(C)=O)CC2)C3)cc1F [Example 117, (S)-1-(4-(6-(1-acetylpiperidin-4-yl)-4-(3-methylmorpholino)-6,7-dihydro-5H-pyrrolo[3,4-d]pyrimidin-2-yl)-2-fluorophenyl)-3-ethylurea]
 |  |  |  |  |  | < 0.1 | > 10 |  |  |  | > 10 | 1 to 10 | C[C@H]1COCCN1c1nc(-c2ccc(NC(=O)NC3CC3)cc2)nc2c1CN(C(=O)CCC(N)=O)C2 [Example 127, (S)-4-(2-(4-(3-cyclopropylureido)phenyl)-4-(3-methylmorpholino)-5H-pyrrolo[3,4-d]pyrimidin-6(7H)-yl)-4-oxobutanamide]
